Our source for the TGI and GI50 values is PubChem BioAssay (NCI).

Common to all, as to experiment: NCI-60 cell line screen, 48 h
For assay [1], the system named is OVCAR-8 ovarian.
Assay [2] concerns IGROV1 ovarian.
The test system of assay [3] is SK-OV-3 ovarian.
The test system of assay [4] is HCT-116 colon.
For assay [5], the system named is MCF7 breast.
In assay [6] the test system is LOX IMVI melanoma.
Assay [7] has as its system M14 melanoma.
Assay [8] relates to RXF 393 renal.
Assay [9] deals with SK-MEL-5 melanoma.
In assay [10] the test system is SK-MEL-28 melanoma.

Several values for one entry are separate records, joined by “and”; a condition that tells them apart may be missing. Equal values may be shown once.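 Values below derive from 48-hour exposures of cells grown in 96-well plates, with endpoints linearly interpolated between the two concentrations bracketing the appropriate inhibition level. GI50 is the concentration that inhibits growth by half. Definition used: TGI = concentration required for complete inhibition of growth.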 A value given as a limit tells only on which side of the number the result lay.

Regarding `CCCCN1C(=O)N(c2ccc(OCC)cc2)C2N(CCCC)C1C(C)(C)C2(C)C` (stereo not given), the TGI is over 100 µM in assay [1]; over 100 µM in assay [2]; 57 µM in assay [3]; over 100 µM in assay [4]; 47.5 µM in [5]; over 100 µM in [6]. Moreover, the TGI in assay [7] is over 100 µM; in [8], 39.1 µM; in [9] it was 67.7 µM; in [10], over 100 µM.

As for `CON(C)C(=O)CNC(=O)OCC1c2ccccc2-c2ccccc21`, the TGI in assay [1] was over 100 µM; in assay [2], over 100 µM; in [3], over 100 µM; in [4], over 100 µM; in assay [5], over 100 µM; in assay [6], 53.1 µM. The TGI in [7], in assay [8], in assay [9] and in assay [10] was over 100 µM in each case.

With `O=C1/C(=N/O)Cc2c(Br)ccc(Br)c21`, the TGI in assay [1], in [2], in [3], in [4], in [5] and in assay [6] was over 100 µM each time. Moreover, the TGI in [7], in [8], in assay [9] and in assay [10] was over 100 µM in each case.

For `COC[C@@H](C[C@H]1O[C@@](O)([C@H](O)[C@@H]2C[C@H](OC)[C@@H](O)CC/C=C(C)/C=C/[C@@H](O[C@@H]3O[C@@H](C)[C@H](OC)[C@@H](O)[C@@H]3O)[C@H](C)/C=C(C)/C=C(C)/C=C(\C)C(=O)O2)[C@H](C)[C@@H](O)[C@H]1C)O[C@H]1C[C@](C)(O)[C@@H](O[C@H]2C[C@@H](OC)[C@H](O)[C@@H](C)O2)C(C)O1` (stereo not given in full), the TGI in assay [1], in assay [2], in assay [3], in [4], in [5] and in assay [6] was over 100 µM throughout. In addition, the TGI in assay [7], in [8], in assay [9] and in assay [10] was over 100 µM in each case.

`COC1=C(OC)C(=O)C(Cc2c(C)nc3sc(C)cn23)=C(C)C1=O`: the TGI in [1] was 32.8 µM; in [2] it was 32.2 µM; in assay [3], 38.9 µM; in assay [4], 49.9 µM; in assay [5], 59.9 µM; in assay [6], 39.4 µM. The TGI was found to be 32.8 µM in assay [7], 42.4 µM in [8], 28.6 µM in assay [9] and 29.9 µM in assay [10].

Take `O=C1C(CN2CCCCC2)CCC1CN1CCCCC1` (stereo not given): the TGI in assay [1] is over 68.9 µM; in [2], 49.7 µM; in [3], over 100 µM; in assay [4], 49.5 µM; in assay [5], 43 µM; in assay [6] it was 31.7 µM. Moreover, the TGI in assay [7] was 32 µM; in [8] it was 28.3 µM; in assay [9], over 69.3 µM; in assay [10], 41.2 µM.

For the molecule `N=C(N)c1ccc(C(NC(=O)CNS(=O)(=O)c2ccc3ccccc3c2)P(=O)(Oc2ccccc2)Oc2ccccc2)cc1` (stereo not given), the TGI in assay [1], in assay [2], in assay [3], in assay [4], in assay [5] and in assay [6] was over 100 µM in each case. The TGI in assay [7], in [8], in assay [9] and in assay [10] was over 100 µM in each case.

For the molecule `CSc1ccc2c(cc1=O)[C@@H](NC(=O)c1ccc(N)cc1)CCc1cc(O)c(O)c(O)c1-2`, the TGI is > 75 µM and 59.1 µM in assay [1]; over 100 µM in assay [2]; over 100 µM in assay [3]; over 100 µM in [4]; 21.7 µM and > 100 µM in assay [5]; > 75 µM and 22.9 µM in assay [6]. In addition, the TGI is 27.9 µM and 36.5 µM in [7]; over 100 µM in assay [8]; 45.5 µM and 28.7 µM in assay [9]; over 100 µM in assay [10]. In addition, the GI50 was 23.8 µM and 11 µM in assay [4]; 9.14 µM and 3.83 µM in [5]; 12 µM and 4.07 µM in assay [6]; 13.5 µM and 5.66 µM in assay [7]; 21.1 µM and 6.63 µM in [9].

Take `Cn1cc(NC(=O)c2cc(NC(=O)CN=C(N)N)cn2C)cc1C(=O)NCCC(=N)N`: the TGI in assay [1], in assay [2], in assay [3], in assay [4], in assay [5] and in [6] was over 100 µM throughout. For the same molecule, the TGI in assay [7], in assay [8], in [9] and in [10] was over 100 µM each time.

With `c1ccc2c(c1)ccn2CCc1c[nH]c2ccccc12`, the TGI in [1], in [2], in [3], in assay [4], in assay [5] and in [6] was over 10 µM each time. The TGI in assay [7], in assay [8], in assay [9] and in assay [10] was over 10 µM in each case.

For `CCOP(C)(=O)C(N)Cc1ccc(OC)c(OC)c1` (stereo not given), the TGI in [1], in assay [2], in [3], in assay [4], in assay [5] and in [6] was over 100 µM each time. Also, the TGI in assay [7], in [8], in assay [9] and in [10] was over 100 µM throughout.

As to `COc1ccc2ccccc2c1/C=C/C(=O)c1ccccc1`, the TGI in [1] was 11.2 µM; in assay [2] it was 16.2 µM; in assay [3] it was 11.2 µM; in [4], 11 µM; in [5], 18.6 µM; in assay [6], 10.9 µM. Also, the TGI in assay [7] worked out at 9.62 µM; in [8], 3.88 µM; in assay [9] it was 16.1 µM; in assay [10], 17.9 µM.

Regarding `COc1cc(Cn2c3c(c4cc(O)ccc42)Cc2ccccc2C3=O)cc(OC)c1`, the TGI was over 100 µM in [1]; over 100 µM in assay [2]; over 100 µM in assay [3]; over 100 µM in assay [4]; 78.6 µM in assay [5]; over 100 µM in [6]. The TGI in assay [7], in [8], in [9] and in assay [10] was over 100 µM in each case.

Consider `O=c1cc(-c2ccc(F)cc2)[nH]c2ncc(Cl)cc12`, for which the TGI in assay [1] was over 100 µM; in assay [2] it was over 100 µM; in assay [3], over 100 µM; in assay [4] it was over 61.3 µM; in assay [5], over 100 µM; in assay [6], over 100 µM. For the same molecule, the TGI in assay [7] is over 100 µM; in assay [8], 89.2 µM; in assay [9], over 100 µM; in [10] it was over 100 µM.

For the molecule `COc1ccc(C(=C(Cl)c2ccccc2)c2ccc(OC)cc2)cc1`, the TGI in [1], in assay [2], in [3], in [4], in assay [5] and in assay [6] was over 100 µM each time. Moreover, the TGI in assay [7], in assay [8], in assay [9] and in assay [10] was over 100 µM throughout.

Turning to `Cc1ccc(-c2c(C#N)c(-c3ccc(Cl)cc3)c(C#N)c(=O)n2NS(=O)(=O)c2ccc(C)cc2)cc1`, the TGI is over 100 µM in assay [1]; over 100 µM in [2]; 89.2 µM in assay [3]; 50.6 µM in [4]; 36.5 µM in assay [5]; 58 µM in assay [6]. Besides, the TGI in [7] was 60.2 µM; in [8], 65.7 µM; in assay [9] it was 38.9 µM; in assay [10] it was over 100 µM.
